Patent US20080254155A1, “Use of Ginkgo Biloba Extract in Preparation of a Composition for Lowering Cholesterol” (SHANGHAI BIOCHIP CO., LTD, priority 2005, published 2008)

System: HepG2 cells
Assay: Cellular cholesterol in HepG2 cells (cholesterol test kit)
Assay type: cell-based, human
Conditions: HepG2, 1 μM lovastatin, 6-hr culture
Experimental: 2) Cell Culture and Treatment • (1) Cell Source: HepG2 ATCC • (2) Condition of Culture • Medium: MEM (Minimum essential medium)+10% FBS • Incubation: 37° C., 5% CO2 • Passage and Collection: 0.05% trypsin+0.02% EDTA • (3) Cell Treatment:
Cells were cultured in petri dishes of φ×10 cm (falcon) and grown to the desired proliferation, then detached and transferred to a 6-well plate (falcon). The cells were allowed to adhere and proliferate to the desired density (about 60%-70% confluence), and then treated and grouped as indicated in the table below.
In order to minimize the interference from the cytokines and lipids in serum without sacrificing the growth, the medium was replaced with MEM+2% FBS during treatment.
For every batch of cells, each treatment was repeated in 6 replicates. The cells were treated at different time points and collected at the same time.
The cholesterol test kit from Shanghai JieMen Biotechnology Joint-Corporate was used in accordance to the manufacturer's instruction.

For `CC[C@H](C)C(=O)O[C@H]1C[C@@H](C)C=C2C=C[C@H](C)[C@H](CC[C@@H]3C[C@@H](O)CC(=O)O3)[C@H]21` [Positive Control, lovastatin], the Cellular cholesterol was 34.23 ± 2.38 μg/mg protein.
